Measurements: patent US10675256B2, “Methods for inhibiting conversion of choline to trimethylamine (TMA)” (The Procter & Gamble Company, priority 2017, dated 2020)
Like-named read-outs stand apart in the source and are kept apart here.

What was measured:
[1] = tested on: Proteus mirabilis 29906 (Pm) lysate; assay: Inhibition of formation of TMA from choline in Proteus mirabilis lysate (EXAMPLE 2); format: biochemical; conditions: Proteus mirabilis 29906 lysate, d9-choline chloride substrate, 37° C. for two hours; read-out: TMA Inhibition (IC50, mol/L)
[2] = tested on: human fecal polymicrobial community; assay: Human fecal polymicrobial incubation with d9-choline, TMA inhibition (EXAMPLE 3); format: cell-based; conditions: human fecal slurry 0.2% (w/v), 50 μM d9-choline chloride, 20 hours at 37° C., anaerobic; read-out: TMA Inhibition (IC50, mol/L)
Method: Human fecal polymicrobial incubation with deuterium labeled choline compound screening method, including cell viability assay. All materials were pre-reduced in an anaerobic chamber for 24 hours before using in the experiments and experimental procedures were performed under anaerobic conditions (chamber purged with 85% nitrogen, 5% hydrogen, 10% carbon dioxide).
Human fecal samples were collected from a healthy volunteer with no chronic illnesses, blood borne diseases or active infections. The volunteer had not received antibiotics within two months prior to donation and provided written informed consent. Samples were diluted to make a 20% (w/v) fecal slurry by resuspension of the feces in a media containing 3% (w/v) tryptic soy broth, 1% (w/v) trehalose, pH 7.3. The fecal slurry was homogenized and filtered by hand using a stomacher bag with an integrated 170 μm membrane. DMSO (5% (w/v)) was added to the filtered slurry and aliquots were stored in cryogenic vials at −80° C. until use. Frozen fecal slurries were diluted to 0.2% (w/v) with M9 media (Na2HPO4 (6 g/L), KH2PO4 (3 g/L), NaCl (0.5 g/L) with addition of 0.1 mM CaCl2 and 1 mM MgSO4) and dispensed (1 mL) into deep well 96-well plates. Diluted fecal slurries containing 50 μM d9-choline chloride and compounds in doses ranging from 500 μM to 3.81 nM were sealed and incubated at 37° C. with shaking. After 20 hours, an aliquot of the fecal polymicrobial community was analyzed for viability using PrestoBlue cell viability reagent (Thermo Fisher Scientific, USA) as described below. The reaction plates were subsequently centrifuged (4000×g at 4° C. for 12 min) to pellet fecal material and 150 μl aliquots were transferred and quenched with addition of formic acid to 1% (v/v). All fecal processing and polymicrobial assay steps were performed in an anaerobic environment. The products were determined by LC/MS/MS and IC50 values were calculated as described previously for detection and analysis of TMA and d9-TMA in EXAMPLE 2.

[3] = biological target: recombinant P. mirabilis Cut C/D lysate (Proteus mirabilis, UniProt B4EYG1); assay: Inhibition of conversion of choline to TMA by recombinant P. mirabilis Cut C/D lysate (EXAMPLE 5); format: biochemical
Method: (§1) Ability of compounds to inhibit the conversion of choline to TMA in cell lysates or whole cells were determined using methods as described in Wang, Z, Roberts, A B, Buffa J A, et al. (2015) Non-lethal inhibition of gut microbial trimethylamine production for the treatment of atherosclerosis, Cell 163: 1585-1595. Briefly, efficacy was measured as IC50 (nM) by inhibition of conversion of choline to TMA metabolized by recombinant P. mirabilis Cut C/D lysate; recombinant D. alaskensis Cut C/D lysate, or whole cell wild-type P. mirabilis.

[4] = biological target: T1, recombinant D. alaskensis Cut C/D lysate (Oleidesulfovibrio alaskensis, UniProt Q30W70); assay: Inhibition of conversion of choline to TMA by recombinant D. alaskensis Cut C/D lysate (EXAMPLE 5); format: biochemical
T1 construct: made in house
Method: as §1

[5] = tested on: whole cell wild-type P. mirabilis; assay: Inhibition of conversion of choline to TMA by whole cell wild-type P. mirabilis (EXAMPLE 5); format: cell-based; conditions: Proteus mirabilis, read-out: EC50 (mol/L) whole cell wild-type P. mirabilis
Method: as §1

[6] = tested on: conversion of choline to TMA; assay: Rapid preclinical method, d9-choline challenge in mice (EXAMPLE 6); format: in vivo; conditions: oral gavage with 2 mg d9-Choline, plasma at 3 hr
Method: Challenge: C57bl/6 female mice (8 wk of age ˜20 g BW) were maintained in accordance with the NIH guidelines in a 12:12 hr light:dark cycle on normal chow diet were placed in a clean cage without food ˜1 hr prior to gavage. […] Food was returned after a 2 hr fast (1 hr after gavage administration). Blood (30 μL) was collected into a heparinized capillary tube 2, 3 and 4 hours after gavage. Blood was kept at 4° C., then spun using a centrifuge (5 min in centrifuge designed to capillary tubes) to separate plasma and hematocrit within 4 hours after collection. Plasma samples were stored at −80° C. Concentration of d9 Choline, d9TMA and d9TMAO was measured by LC-MS/MS.
Flora Normalization: Twenty four hours post-gavage mice were placed in a clean cage and fecal material from conventional mice was spread in all the cages.

plasma TMAO = assay: Preclinical screening method, plasma TMAO in mice on 1% choline diet (EXAMPLE 4); format: in vivo, mice (C57bl/6); conditions: 1% Choline Added diet, oral gavage 310 mg/kg/day, 3 days, blood 20 hours post gavage
Method: Starting at day 0, mice (C57bl/6, ˜19 g, 10 wk of age; n=5/group) were maintained in accordance with the NIH guidelines in a 12:12 hr light:dark cycle and provided with 1% Choline Added diet (Envigo custom formulation prepared, similar to Teklad Global Rodent Diet 2018) ad libitum. Concurrent with introduction of the diet, mice were gavaged once daily orally using a 1.5″ 22G ball-tip curved feeding needle to administer compound in 200 μl or less of water at one or multiple of the dose 0, 1.0, 3.1, 10, 31, 100 or 310 mg/kg/day. Urine was collected once daily in the morning. Animals were restrained by hand and bladder was expressed by gentle palpation of the pelvic region. […]
For measurement of TMA in plasma, samples were acidified (10 mM HCl final) prior to storage at −80° C. TMAO and TMA and their d9-isotopologues were quantified using stable isotope dilution HPLC with on-line electrospray ionization tandem mass spectrometry ([…]) methods as described in (Wang Z, Klipfell E, Bennett B J, et al. (2011) Gut flora metabolism of phosphatidylcholine promotes cardiovascular disease. Nature 472:57-63) using d4(1,1,2,2)-choline, d3(methyl)-TMAO, and d3(methyl)-TMA as internal standards. […]

T1 sequence (Q30W70 whole entry): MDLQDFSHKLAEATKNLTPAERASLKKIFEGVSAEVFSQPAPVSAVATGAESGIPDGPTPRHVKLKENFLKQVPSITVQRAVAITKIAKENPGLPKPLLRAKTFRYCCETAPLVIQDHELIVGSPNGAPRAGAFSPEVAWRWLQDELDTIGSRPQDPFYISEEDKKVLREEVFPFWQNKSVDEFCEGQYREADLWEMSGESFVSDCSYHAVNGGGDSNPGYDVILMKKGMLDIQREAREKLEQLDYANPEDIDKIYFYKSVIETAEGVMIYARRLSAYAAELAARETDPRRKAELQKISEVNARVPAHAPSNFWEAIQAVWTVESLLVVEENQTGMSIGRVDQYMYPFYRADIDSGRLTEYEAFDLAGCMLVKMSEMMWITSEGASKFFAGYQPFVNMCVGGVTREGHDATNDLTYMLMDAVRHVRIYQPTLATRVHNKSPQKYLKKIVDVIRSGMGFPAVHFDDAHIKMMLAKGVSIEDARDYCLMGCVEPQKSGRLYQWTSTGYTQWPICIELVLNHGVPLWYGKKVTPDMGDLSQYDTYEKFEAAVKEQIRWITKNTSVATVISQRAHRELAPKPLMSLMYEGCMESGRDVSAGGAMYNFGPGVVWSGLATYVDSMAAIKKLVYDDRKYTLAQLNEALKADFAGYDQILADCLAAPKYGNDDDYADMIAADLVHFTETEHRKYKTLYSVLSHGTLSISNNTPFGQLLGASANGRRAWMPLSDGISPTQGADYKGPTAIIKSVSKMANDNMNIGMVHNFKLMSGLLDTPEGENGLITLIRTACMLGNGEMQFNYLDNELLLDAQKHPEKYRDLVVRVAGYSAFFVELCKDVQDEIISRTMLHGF
Sequence of recombinant P. mirabilis Cut C/D lysate (B4EYG1 entry or part of it): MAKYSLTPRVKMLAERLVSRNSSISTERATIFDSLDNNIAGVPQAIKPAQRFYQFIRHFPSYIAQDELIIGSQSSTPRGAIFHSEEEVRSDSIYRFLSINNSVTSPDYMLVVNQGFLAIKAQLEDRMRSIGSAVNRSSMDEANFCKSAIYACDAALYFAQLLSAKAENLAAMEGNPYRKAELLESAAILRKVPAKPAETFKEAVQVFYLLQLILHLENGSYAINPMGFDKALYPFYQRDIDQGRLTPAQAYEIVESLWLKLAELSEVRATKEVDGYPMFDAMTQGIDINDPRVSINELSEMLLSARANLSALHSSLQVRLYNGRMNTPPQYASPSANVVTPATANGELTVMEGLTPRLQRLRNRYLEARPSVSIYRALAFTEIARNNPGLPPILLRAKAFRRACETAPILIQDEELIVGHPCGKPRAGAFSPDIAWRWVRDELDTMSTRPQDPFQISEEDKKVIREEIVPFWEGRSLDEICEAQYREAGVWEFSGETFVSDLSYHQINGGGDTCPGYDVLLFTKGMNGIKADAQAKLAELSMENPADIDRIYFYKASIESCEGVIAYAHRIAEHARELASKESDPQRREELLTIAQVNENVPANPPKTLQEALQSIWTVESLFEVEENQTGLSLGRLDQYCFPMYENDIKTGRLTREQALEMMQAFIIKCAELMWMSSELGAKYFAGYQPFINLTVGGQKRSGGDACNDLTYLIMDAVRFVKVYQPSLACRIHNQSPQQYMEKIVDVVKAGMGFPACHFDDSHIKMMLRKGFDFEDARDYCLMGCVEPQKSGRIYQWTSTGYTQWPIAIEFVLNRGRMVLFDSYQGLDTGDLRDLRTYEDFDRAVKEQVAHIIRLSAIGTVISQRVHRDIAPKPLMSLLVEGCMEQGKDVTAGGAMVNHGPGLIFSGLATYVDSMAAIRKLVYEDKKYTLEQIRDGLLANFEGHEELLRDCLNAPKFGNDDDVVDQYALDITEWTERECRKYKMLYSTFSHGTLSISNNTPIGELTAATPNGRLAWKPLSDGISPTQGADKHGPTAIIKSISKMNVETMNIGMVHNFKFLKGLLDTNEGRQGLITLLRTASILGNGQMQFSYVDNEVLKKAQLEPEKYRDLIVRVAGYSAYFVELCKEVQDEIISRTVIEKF
Sequence of recombinant P. mirabilis Cut C/D lysate (B4EYG0 entry or part of it, further chain): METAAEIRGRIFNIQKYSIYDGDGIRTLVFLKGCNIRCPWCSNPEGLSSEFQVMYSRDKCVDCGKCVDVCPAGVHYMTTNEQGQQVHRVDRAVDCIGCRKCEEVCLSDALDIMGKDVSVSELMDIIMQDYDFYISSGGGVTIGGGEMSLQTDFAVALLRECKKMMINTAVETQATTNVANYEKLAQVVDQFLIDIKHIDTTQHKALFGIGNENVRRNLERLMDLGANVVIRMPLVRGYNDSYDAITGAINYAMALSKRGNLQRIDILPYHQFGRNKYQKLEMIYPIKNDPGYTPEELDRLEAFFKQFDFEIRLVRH

| SMILES | IC50 [1] [µM] | IC50 [2] [µM] | further results |
| --- | --- | --- | --- |
| C#CC[N+]1(C2CC2)CCOCC1 [compound 10, 4-cyclopropyl-4-(prop-2-yn-1-yl)morpholin-4-ium] | 1.28 | – | – |
| C[N+](C)(CF)C1CC1 [N-(fluoromethyl)-N,N-dimethylcyclopropanaminium iodide] | 60 | – | IC50 [3]: 21000 nM; IC50 [4]: 45000 nM |
| C[N+](C)(CCO)C1CC1 [compound 1] | 0.000251 | 135 | – |
| C#CC[N+](C)(C)C1CC1 [ID 3, N,N-dimethyl-N-(prop-2-yn-1-yl)cyclopropanaminium bromide] | – | – | EC50 ([5]; inhibition of conversion of choline to TMA): 38 nM; IC50 [3]: 150 nM; Calculated EC50 (mg/kg) compared to Vehicle Control [6]: 0.04 mg/kg; Remaining plasma TMAO as a percentage of plasma TMAO in same day vehicle control (% of control remaining) (plasma TMAO): 23%; IC50 [4]: 110 nM |
| C[N+](C)(CCO)C1CC1 [ID 1, Cyclopropane-dimethyl-ethanolamine iodide] | – | – | EC50 [5]: 48.1 nM; IC50 [3]: 6.2 nM; Calculated EC50 (mg/kg) compared to Vehicle Control [6]: 0.75 mg/kg; Remaining plasma TMAO as a percentage of plasma TMAO in same day vehicle control (% of control remaining) (plasma TMAO): 5%; IC50 [4]: 87 nM |
| CCOC(=O)CCCCC[N+](C)(C)C1CC1 [compound 9, N-(6-ethoxy-6-oxohexyl)-N,N-dimethylcyclopropanaminium] | 945 | – | – |
| C#CC[N+](C)(C)C1CC1 [compound 3, N,N-dimethyl-N-(prop-2-yn-1-yl)cyclopropanaminium] | 0.0331 | 0.428 | – |

Continued, in another order:

| IC50 [1] [µM] | IC50 [2] [µM] | SMILES | further results |
| --- | --- | --- | --- |
| 50.4 | 166 | C=C(C[N+](C)(C)C1CC1)C(=O)OC [compound 5, N-(2-(methoxycarbonyl)allyl)-N,N-dimethylcyclopropanaminium] | – |
| 4.65 | – | COC(=O)C(=O)C[N+](C)(C)C1CC1 [compound 6, N-(3-methoxy-2,3-dioxopropyl)-N,N-dimethylcyclopropanaminium] | – |
| 202 | – | C[N+](C)(CC(N)=O)C1CC1 [compound 8, N-(2-amino-2-oxoethyl)-N,N-dimethylcyclopropanaminium] | – |
| 89.2 | 134 | COC(=O)C[N+](C)(C)C1CC1 [compound 4, N-(2-methoxy-2-oxoethyl)-N,N-dimethylcyclopropanaminium] | – |
| 0.00398 | 53.2 | C=CC[N+](C)(C)C1CC1 [compound 2, N-allyl-N,N-dimethylcyclopropanaminium] | – |
